Reference: PMC9586938, “Picomolar fluorescent probes for compound affinity determination to carbonic anhydrase IX expressed in live cancer cells” (Scientific Reports, 2022)

Assays:
[1] = molecular target: T1, CAIX expressed on HeLa cells (Homo sapiens, UniProt Q16790); assay: Fluorescein-labeled compound dosing to hypoxia-grown WT HeLa cells (Morrison single-site model); type: cell-based; conditions: same conditions as GZ19-32, up to about 100 nM
T1 construct: recombinant CAIX and endogenous CAIX expressed on the cell surface; endogenous in cells; host or cells: HeLa (WT), grown under hypoxia (1% O2)
Method: (§1) HeLa cell culture was grown in 12-well plates, either under hypoxia (1% O2) or under normoxia (21% O2), for 70 to 76 h. The medium was removed. Then 200 µL of serially diluted compound (twelve twofold steps) in the FB medium, usually starting at 80 nM (80, 40, 20, …, 0 nM), was added and incubated at 37 ℃ under normoxia in the CO2 incubator for 20 min (2 or 5 min in some experiments where specified). Then the compound solution was removed and the cells were washed 3 times for 1.5–2 min with 400 µL of PBS at RT. Then 180 µL of TrypLe express enzyme (ThermoFisher) was added to each well and incubated in CO2 incubator for 5 min to 10 min until the cells deattached from the surface. After addition of 20 µL of Defined Trypsin Inhibitor solution (ThermoFisher), cells were resuspended by pipetting and 150 µL of the suspension from each well were transferred to black Thermo Scientific™ Nunc MicroWell 96-Well Optical-Bottom Plates for fluorescence and absorbance measurements. The fluorescence was recorded at 485 nm excitation and 520 nm emission wavelengths in the plate reader (Synergy HTX, BioTek). The absorbance was recorded at 650 nm to measure the optical density of the cell suspension.
(§2) The compound solution was prepared by weighing 3–5 mg of a purified compound and dissolving in DMSO at 10 mM concentration. The 1 mM compound stock in DMSO was prepared by taking 10 µL of 10 mM stock and adding to 90 µL DMSO. The 10 µM compound stock was prepared by taking 10 µL of 1 mM compound stock in DMSO and adding 990 µL of the FB medium (this stock contained 1% of DMSO). Then 80 nM compound solution was prepared by taking 10 µL of 10 µM solution and adding 1.24 mL of the FB medium and placed to the first Eppendorf tube. Then 300 µL of FB medium were added to the Eppendorf tubes 2 to 12. A serial dilution was performed by taking 300 µL of solution from tube 1 to 2, then from 2 to 3 and so on while mixing vigorously at each step. No solution was transferred to the last tube thus it contained only FB medium and no compound. Then 200 µL from 12 tubes were transferred to the 12 wells of cell culture-containing 12-well plate, starting from the lowest concentration.
Application of fluorescently labeled ligand GZ19-32 to cancer cells expressing CAIX will stain the cells in dose-dependent manner. The fraction of saturation increases from 0 to 1. The fraction of bound GZ19-32 (f) is equal to the molar concentration of bound GZ19-32 per molar concentration of total available CAIX, the so-called total protein Pt . f=GZ19-32bound/Pt
Upon GZ19-32 dosing, the observed fluorescence signal F can be modeled to change from the minimal background signal ( Fmin ) to maximal saturated value ( Fmax ): F=Fmin+Fmax-Fminf […]

[2] = molecular target: T2, CAXIII (Homo sapiens, UniProt Q8N1Q1); assay: Thermal shift assay (TSA), recombinant CAXIII; type: binding; conditions: 37 °C, pH 7.0, observed (not intrinsic)
T2 construct: made in house; host or cells: E. coli

[3] = molecular target: T3, CAVA (Homo sapiens, UniProt P35218); assay: Thermal shift assay (TSA), recombinant CAVA; type: binding; conditions: 37 °C, pH 7.0, observed (not intrinsic)
T3 construct: made in house; host or cells: E. coli
Method: (§3) The binding affinities of all fluorescein-containing compounds were determined for all 12 catalytically active CA isozymes by the thermal shift assay (TSA). […] However, the SFA technique cannot determine the affinities lower than the enzyme concentration used in the assay. […] In addition, we used isothermal titration calorimetry (ITC), the standard assay to determine affinity and enthalpy of protein–ligand binding. […] Therefore, ITC was used only to determine the enthalpy of interaction and confirm the ordering of compound affinities.
(§4) All twelve catalytically active human CA isozymes were prepared recombinantly as previously described. Isozymes CAIX, CAXII, and CAXIV were the catalytic domains of the proteins[14],[38]. All isozymes were expressed in E. coli except CAIX that has been prepared in mammalian cells. The proteins were chromatographically purified on ion-exchange or benzene sulfonamide containing affinity columns. Protein MW was confirmed by mass spectrometry with 1 Da precision as predicted from gene sequence.
(§5) Compound affinities for the twelve catalytically active CA isozymes were determined by the thermal shift assay as previously described[30],[39]. Protein solutions containing 1,8-anilinonaphthalenesulfonate fluorescent probe were heated from 25 to 100 °C at a rate of one degree per minute while following the fluorescence of the probe. The temperature scanning curves provided the melting temperature Tm of the protein. The Tm has a distinct dependence on the concentration of a compound. Stronger binders shift the Tm to a greater extent than the weak binders. The Tm dependencies on compound concentration were fit to obtain the affinity Kd[40].

[4] = test system: HeLa CAIX-KO and normoxia-grown WT HeLa cells; assay: Fluorescein-labeled compound dosing to CAIX-KO and normoxia-grown HeLa cells (non-specific binding); type: cell-based, human; conditions: micromolar concentration range, Fig. 9B, 9C
Method: as §1, §2
This equation was fit to the dosing curves of several fluorescently-labeled ligands to both the cells grown in hypoxia and in normoxia, both to the WT and CRISPR-Cas9 CAIX knockout cells. The cells bound both the GZ19-32 and GZ20-40 ligands that differed only in the length of the linker and both contained the same head-group. […] Furthermore, the ligands that had their sulfonamide amino group substituted with the methyl completely abandoned their capability of binding CAIX in this concentration region. The binding was also abolished for the CAIX-KO HeLa cells.

[5] = molecular target: T4, CAII (Homo sapiens, UniProt P00918); assay: Thermal shift assay (TSA), recombinant CAII; type: binding; conditions: 37 °C, pH 7.0, observed (not intrinsic)
T4 construct: made in house; host or cells: E. coli
Method: as §3, §4, §5

[6] = molecular target: T5, CAVII (Homo sapiens, UniProt P43166); assay: Thermal shift assay (TSA), recombinant CAVII; type: binding; conditions: 37 °C, pH 7.0, observed (not intrinsic)
T5 construct: made in house; host or cells: E. coli

[7] = molecular target: T6, CAXII (Homo sapiens, UniProt O43570); assay: Thermal shift assay (TSA), recombinant CAXII; type: binding; conditions: 37 °C, pH 7.0, observed (not intrinsic)
T6 construct: Isozymes CAIX, CAXII, and CAXIV were the catalytic domains of the proteins; made in house; host or cells: E. coli
Method: as §3, §4, §5

[8] = molecular target: T7, CAXIV (Homo sapiens, UniProt Q9ULX7); assay: Thermal shift assay (TSA), recombinant CAXIV; type: binding; conditions: 37 °C, pH 7.0, observed (not intrinsic)
T7 construct: Isozymes CAIX, CAXII, and CAXIV were the catalytic domains of the proteins; made in house; host or cells: E. coli

[9] = molecular target: T8, catalytic domain of recombinant human CAIX (Homo sapiens, UniProt Q16790); assay: Thermal shift assay (TSA), recombinant CAIX catalytic domain; type: binding; conditions: for Kd: TSA, 37 °C, pH 7.0, observed (not intrinsic), read-out: Kd CAIX
T8 construct: Isozymes CAIX, CAXII, and CAXIV were the catalytic domains of the proteins; made in house; host or cells: mammalian cells

[10] = molecular target: T9, CAIV (Homo sapiens, UniProt P22748); assay: Thermal shift assay (TSA), recombinant CAIV; type: binding; conditions: 37 °C, pH 7.0, observed (not intrinsic)
T9 construct: made in house; host or cells: E. coli

[11] = molecular target: T10, CAVB (Homo sapiens, UniProt Q9Y2D0); assay: Thermal shift assay (TSA), recombinant CAVB; type: binding; conditions: 37 °C, pH 7.0, observed (not intrinsic)
T10 construct: made in house; host or cells: E. coli

[12] = molecular target: T11, CAI (Homo sapiens, UniProt P00915); assay: Thermal shift assay (TSA), recombinant CAI; type: binding; conditions: 37 °C, pH 7.0, observed (not intrinsic)
T11 construct: made in house; host or cells: E. coli

[13] = molecular target: T12, CAVI (Homo sapiens, UniProt P23280); assay: Thermal shift assay (TSA), recombinant CAVI; type: binding; conditions: 37 °C, pH 7.0, observed (not intrinsic)
T12 construct: made in house; host or cells: E. coli
Method: as §3, §4, §5

[14] = molecular target: T13, CAIII (Homo sapiens, UniProt P07451); assay: Thermal shift assay (TSA), recombinant CAIII; type: binding; conditions: 37 °C, pH 7.0, observed (not intrinsic)
T13 construct: made in house; host or cells: E. coli
Method: as §3, §4, §5

[15] = molecular target: CAIX expressed on live A549 cells (Homo sapiens, UniProt Q16790); assay: Competition of unlabeled compound with 10 nM GZ19-32 on hypoxic A549 cells (competitive binding model); conditions: ratio of KdA

T3 sequence (P35218 39-305): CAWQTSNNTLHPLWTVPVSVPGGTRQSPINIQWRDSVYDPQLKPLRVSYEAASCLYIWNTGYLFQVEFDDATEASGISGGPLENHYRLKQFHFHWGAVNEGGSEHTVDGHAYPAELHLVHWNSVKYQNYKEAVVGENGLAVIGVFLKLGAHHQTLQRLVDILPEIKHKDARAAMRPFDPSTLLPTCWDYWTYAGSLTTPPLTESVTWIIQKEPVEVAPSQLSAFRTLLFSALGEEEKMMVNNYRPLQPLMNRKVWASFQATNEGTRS
T7 sequence (Q9ULX7 20-278 limits assumed): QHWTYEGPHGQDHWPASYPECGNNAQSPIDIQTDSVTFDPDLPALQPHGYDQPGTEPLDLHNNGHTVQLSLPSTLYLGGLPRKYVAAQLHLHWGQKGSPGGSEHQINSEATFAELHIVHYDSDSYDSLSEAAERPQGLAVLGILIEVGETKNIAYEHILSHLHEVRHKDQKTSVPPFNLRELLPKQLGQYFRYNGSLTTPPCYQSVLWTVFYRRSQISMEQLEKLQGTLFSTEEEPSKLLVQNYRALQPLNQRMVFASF
T5 sequence (P43166 whole entry): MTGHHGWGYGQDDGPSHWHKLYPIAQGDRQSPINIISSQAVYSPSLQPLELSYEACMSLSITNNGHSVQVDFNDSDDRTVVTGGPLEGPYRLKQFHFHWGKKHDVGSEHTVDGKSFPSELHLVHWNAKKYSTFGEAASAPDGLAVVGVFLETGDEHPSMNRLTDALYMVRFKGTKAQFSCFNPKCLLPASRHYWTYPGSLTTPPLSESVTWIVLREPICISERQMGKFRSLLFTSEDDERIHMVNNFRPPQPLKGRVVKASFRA
T12 sequence (P23280 18-308): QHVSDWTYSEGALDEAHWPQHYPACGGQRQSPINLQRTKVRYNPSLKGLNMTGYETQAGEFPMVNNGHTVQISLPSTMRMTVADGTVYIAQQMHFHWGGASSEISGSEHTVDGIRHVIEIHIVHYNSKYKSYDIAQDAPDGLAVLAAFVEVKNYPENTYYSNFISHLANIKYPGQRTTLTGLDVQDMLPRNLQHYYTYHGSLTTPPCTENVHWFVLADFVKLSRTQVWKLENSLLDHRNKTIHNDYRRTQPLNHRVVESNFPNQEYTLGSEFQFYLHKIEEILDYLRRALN
T10 sequence (Q9Y2D0 34-317): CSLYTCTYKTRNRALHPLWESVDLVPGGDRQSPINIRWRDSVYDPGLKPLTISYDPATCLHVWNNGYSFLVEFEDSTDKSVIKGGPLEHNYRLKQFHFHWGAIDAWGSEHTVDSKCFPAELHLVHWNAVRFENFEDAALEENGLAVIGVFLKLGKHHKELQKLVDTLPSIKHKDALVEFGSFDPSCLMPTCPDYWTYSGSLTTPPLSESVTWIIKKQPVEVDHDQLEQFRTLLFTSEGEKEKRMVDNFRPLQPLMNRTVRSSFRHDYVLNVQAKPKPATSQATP
T13 sequence (P07451 whole entry): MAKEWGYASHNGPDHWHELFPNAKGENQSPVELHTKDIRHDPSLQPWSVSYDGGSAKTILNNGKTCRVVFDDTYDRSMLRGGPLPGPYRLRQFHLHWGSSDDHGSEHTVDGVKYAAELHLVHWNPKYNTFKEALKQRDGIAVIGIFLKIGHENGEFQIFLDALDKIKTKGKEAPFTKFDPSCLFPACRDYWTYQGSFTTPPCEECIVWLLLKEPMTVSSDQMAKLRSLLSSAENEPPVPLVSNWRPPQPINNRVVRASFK
T2 sequence (Q8N1Q1 whole entry): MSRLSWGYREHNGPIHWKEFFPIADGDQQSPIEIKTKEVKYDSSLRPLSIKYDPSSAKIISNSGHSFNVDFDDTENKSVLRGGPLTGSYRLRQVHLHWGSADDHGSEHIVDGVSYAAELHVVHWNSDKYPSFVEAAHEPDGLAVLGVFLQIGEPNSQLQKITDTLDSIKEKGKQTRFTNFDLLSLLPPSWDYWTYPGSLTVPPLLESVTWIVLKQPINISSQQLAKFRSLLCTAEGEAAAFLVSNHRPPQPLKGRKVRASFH
T9 sequence (P22748 19-312): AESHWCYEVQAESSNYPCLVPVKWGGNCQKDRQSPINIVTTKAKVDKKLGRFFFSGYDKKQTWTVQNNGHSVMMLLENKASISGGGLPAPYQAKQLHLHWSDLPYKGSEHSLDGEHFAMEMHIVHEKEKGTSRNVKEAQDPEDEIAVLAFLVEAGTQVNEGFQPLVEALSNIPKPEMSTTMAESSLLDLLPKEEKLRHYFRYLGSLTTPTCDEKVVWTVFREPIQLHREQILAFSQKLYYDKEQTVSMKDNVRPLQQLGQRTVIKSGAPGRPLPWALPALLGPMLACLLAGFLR
T11 sequence (P00915 whole entry): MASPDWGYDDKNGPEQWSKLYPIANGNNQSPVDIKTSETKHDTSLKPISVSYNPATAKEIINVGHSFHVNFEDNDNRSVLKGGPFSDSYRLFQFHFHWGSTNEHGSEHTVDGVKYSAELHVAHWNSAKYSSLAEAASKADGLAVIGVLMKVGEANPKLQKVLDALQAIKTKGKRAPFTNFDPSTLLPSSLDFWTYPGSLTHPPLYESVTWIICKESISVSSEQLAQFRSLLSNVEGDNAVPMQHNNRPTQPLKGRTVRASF
T6 sequence (O43570 30-289 limits assumed): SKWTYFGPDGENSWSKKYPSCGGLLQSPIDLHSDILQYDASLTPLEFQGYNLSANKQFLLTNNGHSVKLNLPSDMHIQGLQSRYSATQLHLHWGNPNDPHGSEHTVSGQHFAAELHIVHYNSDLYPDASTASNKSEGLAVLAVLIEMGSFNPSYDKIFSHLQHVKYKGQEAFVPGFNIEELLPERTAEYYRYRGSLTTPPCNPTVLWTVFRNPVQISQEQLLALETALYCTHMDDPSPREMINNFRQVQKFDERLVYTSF

binding to hypoxia-grown HeLa cells in the nM concentration region [1] | Kd [2] [nM] | Kd [3] [nM] | Kd [5] [nM] | Kd [6] [nM] | Kd [7] [nM] | melting point [°C] | Kd [8] [nM] | Kd [9] [nM] | binding to CAIX by TSA (in words) ([9]; recombinant CAIX) | Kd [10] [nM] | Kd [11] [nM] | Kd [12] [nM] | Kd [13] [nM] | Kd [14] [nM] | weaker binding to CAIX in A549 than HeLa cells [15] [times] | SMILES | non-specific binding to cells [4]
did not bind | 1.7 | 29 | 1.7 | 2 | 40 | 175 to 176 | 25 | 1.7 | medium affinity (nM range) | 140 | 20 | 0.005 | 140 | 2500 | – | NS(=O)(=O)c1c(F)c(F)c(S(=O)(=O)CCC(=O)Nc2ccc3c(c2)C(=O)OC32c3ccc(O)cc3Oc3cc(O)ccc32)c(F)c1F [GZ19-31, N-(3',6'-dihydroxy-3-oxo-3H-spiro[isobenzofuran-1,9'-xanthen]-5-yl)-3-((2,3,5,6-tetrafluoro-4-sulfamoylphenyl)sulfonyl)propanamide] | bound cells in the micromolar concentration range
– | > 100000 | > 100000 | > 100000 | > 100000 | > 100000 | 181 to 182 | > 100000 | > 100000 | – | > 100000 | > 100000 | > 100000 | > 100000 | > 100000 | – | CS(=O)(=O)c1c(F)c(F)c(SCCC(=O)Nc2ccc3c(c2)C(=O)OC32c3ccc(O)cc3Oc3cc(O)ccc32)c(F)c1F [GZ19-33, N-(3',6'-dihydroxy-3-oxo-3H-spiro[isobenzofuran-1,9'-xanthen]-5-yl)-3-((2,3,5,6-tetrafluoro-4-(methylsulfonyl)phenyl)thio)propanamide] | bound cells in the micromolar concentration range
– | 1 | 1000 | 200 | 7 | 7 | 180 to 181 | 2.5 | 0.01 | – | 500 | 33 | 500 | 250 | 6700 | – | NS(=O)(=O)c1c(F)c(F)c(S(=O)(=O)CCC(=O)NCCCC(=O)Nc2ccc3c(c2)C(=O)OC32c3ccc(O)cc3Oc3cc(O)ccc32)c(NC2CCCCCCC2)c1F [GZ20-40, 4-(3-((2-(cyclooctylamino)-3,5,6-trifluoro-4-sulfamoylphenyl)sulfonyl)propanamido)-N-(3',6'-dihydroxy-3-oxo-3H-spiro[isobenzofuran-1,9'-xanthen]-5-yl)butanamide] | –
– | – | 6000 | – | – | – | – | – | – | – | – | – | – | 10000 | > 200000 | 6 | NS(=O)(=O)c1ccc(NC(=O)Nc2ccc(F)cc2)cc1 [SLC-0111, 4-(3-(4-fluorophenyl)ureido)benzenesulfonamide, reference compound] | –
